These results are taken from patent publication US20140296143A1, “Angiotensin-(1-7) As A Chemoprevention Agent” (Wake Forest Innovations, priority 2008, published 2014).

Molecules are shown by their SMILES.

The conditions of series [1]: adjuvant therapy for cytopenia during chemotherapy; Rodgers et al., 2005; cited from earlier work.
The test system of series [2] is A549 human lung cancer cells. In words: Hoechst 33342 staining for morphological features of apoptosis. The format is cell-based. As to conditions: 100 nM, 4 h. From the text:
In one experiment, A549 human lung cancer cells were stained with Hoechst 33342 to visualize the morphological changes associated with apoptosis.

The next series concerns ERK2. As to conditions: SK-LU-1, 10 nM pretreatment; Gallagher et al., 2004; cited from earlier work.
For series [3], the system named is SK-MES-1 lung cancer cells. In kind it is cell-based, human.
Experimental: Unless otherwise stated, cells were grown in DMEM with 10% fetal bovine serum (FBS), 100 μg/mL penicillin and 100 units/mL streptomycin in a humidified 37° C. incubator gassed with 5% CO2 and 95% room air. Cells were grown to subconfluence in either 24-well cluster plates or 100 mm dishes and made quiescent by treatment for 48 h with serum-depleted growth media, prior to the experiments outlined below to measure cell growth (^3H-thymidine incorporation), cell signaling or apoptosis.
Subsequently, the cell monolayer was washed with cold phosphate-buffered saline (PBS; 50 mM NaPO4, 120 mM NaCl, pH=7.2). The adherent cells were precipitated with cold 10% TCA (4° C. for 30 min) and dissolved in 0.2% SDS in 0.1 N NaOH. Incorporated ^3H-thymidine was determined by liquid scintillation spectrometry, as previously described (Freeman, E. J. et al., Hypertension, 1996, 28:104-108). Growth inhibition was defined as a reduction in the amount of ^3H-thymidine incorporation as compared to the mitogen-stimulated controls.
Series [4] has as its system lung tumors in Ki-ras^G12C mice. In words: Ki-ras^G12C bi-transgenic mouse model of lung tumorigenesis, DOX-induced. In kind it is in vivo. Here is the method:
Tumors were fixed with 4% paraformaldehyde for 24 h and incubated in 70% ethanol for 48 h prior to embedding in paraffin. The embedded tumors were cut into five micron thick sections and stained with hematoxylin and eosin to determine morphology. Cell proliferation in the tumors was detected by immunostaining with an antibody to Ki67 (1:25; Abcam, Cambridge, Mass.) using the labeled streptavidin biotin method, as described previously (Floyd et al., Carcinogenesis, 2005, 26:2196-2206). Stained sections were visualized and photographed with a video image analysis system (Scion, Inc., Frederick, Md.) and public domain software (NIH Image v1.60). A computer-assisted counting technique with a grid filter to select cells was used to quantify the immunohistochemical staining of Ki67 (Stute et al., Fertil. Steril., 2004, 82:1160-1170). The positive cells were expressed as a percentage of the total cell number examined (100 cells sampled from each tissue site within each lung tumor section).
A novel model for the induction of lung tumors in mice, a bi-transgenic mouse that expresses the mutant human Ki-ras^G12C allele in a tet-inducible and lung-specific manner was generously supplied by Dr. Mark Miller of the Department of Cancer Biology, Wake Forest University School of Medicine, for use in these experiments.
For these experiments, sixteen (16) bi-transgenic mice were produced by crossing mono-transgenic Ki-ras^G12C mice with Clara cell secretory protein-reverse tet trans-activator (CCSP-rtTA) transgenic mice. The presence of both transgenes was verified by genotyping.

The subject of series [5] is chorioallantoic membrane (CAM). In words: Chorioallantoic membrane (CAM) assay of neovascularization. In kind it is in vivo, chicken. Here is the method: Chicken eggs were incubated for four days in constant humidity at 37° C. […] The extent of neovascularization was quantified by counting branch points, as illustrated in FIG. 14 showing about a 50% reduction in branch points. No difference was found in the number of branch points between the two groups prior to treatment with Ang-(1-7).

Series [6] can be described thus: Plasma Ang-(1-7) level after intravenous infusion in mice. In kind it is in vivo, mouse.

For orientation: IC50 means the midpoint of a concentration-inhibition curve. Read a high IC50 as a need for much substance. As for `CC[C@H](C)[C@H](NC(=O)[C@H](Cc1ccc(O)cc1)NC(=O)[C@@H](NC(=O)[C@H](CCCNC(=N)N)NC(=O)[C@@H](N)CC(=O)O)C(C)C)C(=O)N[C@@H](Cc1c[nH]cn1)C(=O)N1CCC[C@H]1C(=O)O` [Ang-(1-7), Asp-Arg-Val-Tyr-Ile-His-Pro], the “adverse side effects in patients” value in series [1] is on record as “no adverse side effects”. Also, the “morphological changes (Hoechst 33342)” value in series [2] is on record as “typical morphological changes associated with stimulation of apoptosis”. Moreover, the “reduction of serum-stimulated phosphorylation of ERK2” value with ERK2 is 68%. Also, the IC50 in series [3] (48 h) was 0.4 nM. For the same molecule, the “^3H-thymidine incorporation over time of treatment” value in series [3] (SK-MES-1, 1% FBS, daily addition of 100 nM) was “progressively reduced”. Further, in series [4] (24 μg/kg/h infusion, 84 days, saline: abundant, robust staining), the “Ki67 immunoreactivity in hyperplastic lesion” value is reported as “little immunoreactivity”. For the same molecule, the “adverse reactions or gross pathological abnormalities” value in series [4] (24 μg/kg/h intravenous infusion, 84 days) was “No adverse reactions or gross pathological abnormalities”. The lung tumor multiplicity in series [4] (24 μg/kg/h intravenous infusion, 84 days, n=8, saline 12.75±1.04) was determined as 6.4±0.87 tumors/mice. In series [4] (Ang-(1-7) infusion, n=7, saline 63.5±6.1 (n=8), percentage of total cell number per FIG. 16 legend), the “CD34 positive cells in pulmonary lesions” value stood at 37.7±5.2. For the same molecule, in series [4] (Ang-(1-7) infusion, n=7, saline 68.8±10.2% (n=8)), the “proportion of COX-2 positive cells in hyperplasias and adenomas” value came to 29.3±8.2%. Also, the “reduction in the development of new tumors” value in series [4] (Ki-ras/CCSP-rtTA bi-transgenic mice, FIG. 2) is on record as “about 50%”. In addition, the “reduction in the proportion of COX-2 positive cells” value in series [4] (versus saline) is given as around 50%. For the same molecule, the “reduction in CD34 positive cells” value in series [4] (versus saline-treated animals) is recorded as around 40%. Moreover, in series [5] (10 nM, 48 hour incubation, n=4, control 58.0±3.6 (n=3)), the “neovascularization, branch points” value is given as 29.5±3.6 branch points. Besides, the “reduction in branch points” value in series [5] (100 nM, 2-day incubation, FIG. 14) is given as around 50%. In addition, the “increase of plasma concentration over saline-infused animals” value in series [6] (24 μg/kg/h intravenous infusion, Ki-ras^G12C mice) came to 5 fold. Moreover, the “plasma concentration of the heptapeptide” value in series [6] (24 μg/kg/h intravenous infusion, Ki-ras^G12C mice, 84 days, n=8, saline 38.7±11.45) turned out to be 0.20132 ± 0.099 ng/mL. In series [6] (Ki-ras^G12C, mouse, plasma, iv, 24 ug/kg/h, read-out: plasma concentration of the heptapeptide), the level at 2016 h is 0.201 ± 0.099 ng/mL. The same molecule showed a level at time molar at 1728 h in series [6] (mouse, plasma, 24 ug/kg/h, 24 μg/kg/h intravenous, 72 days of infusion into mice, n=8, from 0.043±0.013) of 0.224 ± 0.11 nM.
